In PMC7385626 (Scientific Reports, 2020):

Legend:
S. aureus ATCC29213 = assay: Serial microdilution assay (MIC); assay type: cell-based, Staphylococcus aureus
Description: (§1) […]. […] Four types of gram-positive bacterial strains (St. pyogenez, B. subtilis, B. cereus, S. aureus) and five types of the gram-negative (S. enteridis, E. aerogenes, P. aeruginosa, E. coli, and S. gallinarum) were sensitive to 4 and 1. […]. The minimal inhibitory concentration value was studied for the microorganism cells, which evaluated to sensitive the substances and they tested in the disc-diffusion method. Inoculate of microorganism was prepared utilizing 12 h suspensions and broth cultures were adjusted to 0.5 McFarland turbidity standard. Each substance was dissolved in 10% dimethyl sulfoxide which diluted to the highest concentration (1000 µg/mL) for testing. […]. Also, prepared suspensions for standard microorganisms were added to each dilution in a 1:1 ratio. Growth act of microorganism cells was determined visually after incubation at 36 °C. The minimum concentration was no visible growth which was taken as the MIC.

B. subtilis ATCC6633 = assay: Serial microdilution assay (MIC); assay type: cell-based, Bacillus Subtilis
Description: as §1

B. cereus DSM 4312 = assay: Serial microdilution assay (MIC); assay type: cell-based, Bacillus Cereus
Description: as §1

St. pyogenez ATCC176 = assay: Serial microdilution assay (MIC); assay type: cell-based, Steptococcus Pyogerez
Description: as §1

E. coli 111 = assay: Serial microdilution assay (MIC); assay type: cell-based, Escherichia coli
Description: as §1

P. aeruginosa ATCC9027 = assay: Serial microdilution assay (MIC); assay type: cell-based, Pseudomonas Aureginosa
Description: as §1

E. aerogenes ATCC2924 = assay: Serial microdilution assay (MIC); assay type: cell-based, Enterobacter Aerogenes
Description: as §1

S. gallinarum = assay: Serial microdilution assay (MIC); assay type: cell-based, Salmonella Gallinarum
Description: as §1

S. enteridis ATCC13076 = assay: Serial microdilution assay (MIC); assay type: cell-based, Salmonella Enteritidis
Description: as §1

[1] = system: bacterial strains (four gram-positive, five gram-negative); assay: Disc diffusion assay, range over the bacterial strains; assay type: cell-based
Description: […]. […] Four types of gram-positive bacterial strains (St. pyogenez, B. subtilis, B. cereus, S. aureus) and five types of the gram-negative (S. enteridis, E. aerogenes, P. aeruginosa, E. coli, and S. gallinarum) were sensitive to 4 and 1. […]. In this study, 10 microbial cultures of this part, belonging to ten types of bacterial were used. The culture was grown in Mueller–Hinton Broth (Merck) for all the bacterial strains at 36 °C. Antimicrobial test was carried out by using disc-diffusion assay utilizing 100 µL of suspension with 10^8 CFU/mL of bacteria and 10^6 CFU/mL of yeast spread on Nutrient Agar and Potato Dextrose Agar, respectively. Also, the blank disc (Oxoid = 6 mm in diameter) was impregnated with 20 µL of each substance (105 µg/disc) and placed on the inoculated agar. Negative controls ([…]) were prepared using the same solvent (water) employed to dissolve each substance. […]. The inoculated plate was incubated at 36 °C for clinical bacterial strains. Antimicrobial activities were evaluated by obtaining the zone of inhibitory effect against the test organisms.

[2] = system: bacterial strains (four gram-positive, five gram-negative); assay: Serial microdilution assay (MIC), range over the bacterial strains; assay type: cell-based
Description: as §1

## [Cd(N-bishydeten)]4[Ag(CN)2]8[Ag(CN)]2 [Complex 4]
S. aureus ATCC29213
  Minimum-inhibitory concentrations (MIC), S. aureus ATCC29213: 62.50 ± 0.0 µg/mL
B. subtilis ATCC6633
  Minimum-inhibitory concentrations (MIC), B. subtilis ATCC6633: 31.25 ± 0.0 µg/mL
B. cereus DSM 4312
  Minimum-inhibitory concentrations (MIC), B. cereus DSM 4312: 62.50 ± 18.04 µg/mL
St. pyogenez ATCC176
  Minimum-inhibitory concentrations (MIC), St. pyogenez ATCC176: 31.25 ± 9.02 µg/mL
E. coli 111
  Minimum-inhibitory concentrations (MIC), E. coli 111: 31.25 ± 0.0 µg/mL
P. aeruginosa ATCC9027
  Minimum-inhibitory concentrations (MIC), P. aeruginosa ATCC9027: 62.50 ± 0.0 µg/mL
E. aerogenes ATCC2924
  Minimum-inhibitory concentrations (MIC), E. aerogenes ATCC2924: 125 ± 53.40 µg/mL
S. gallinarum
  Minimum-inhibitory concentrations (MIC), S. gallinarum: 125 ± 0.0 µg/mL
S. enteridis ATCC13076
  Minimum-inhibitory concentrations (MIC), S. enteridis ATCC13076: 62.50 ± 0.14 µg/mL
[1]
  inhibition zones, range over the bacterial strains: 25–37 mm
[2]
  MIC, joint range for 4 and 1 over the strains: 15.62 to 125 µg/mL
  MIC, range over the bacterial strains: 31.25 to 125 µg/mL
